“And” between values parts separate entries of the source, which are not always exact repeats. Equal entries are not always repeated. Structures can show the parent of a compound that is named as a salt.
biological target: T1, GABAA α1β2γ2 (Homo sapiens, UniProt P14867+P18507+P47870); test: 35S-TBPS binding assay (competition), HEK293 membranes with GABAA α1β2γ2 construct; conditions: 35S-TBPS (5 nM) competition, GABA 1 μM, 2 hours at room temperature, read-out: pIC50 α1β2γ2 (converted)
T1 construct: expressed in transfected cells; host or cells: HEK293
Description: (§1) The binding assay is based on the assay reported by K. Gee et al., Eur. J. Pharmacol. 1987 136:419-423.
(§2) Homogenate preparation: Membrane preparations of HEK293 cells containing either GABAA α1β2γ2 or GABAA α2β3γ2 constructs were performed according to a modified procedure previously described by Gee et al. (supra). Whole HEK 293 cells in D-PBS (calcium/magnesium free) buffer adjusted to pH 7.4 were centrifuged at 7,280×g for 20 m. After discarding the supernatant, the pellet was resuspended in the buffer and centrifuged at 1,820×g for 10 m. Afterwards, the supernatant was discarded and the pellet resuspended in ice-cold preparation buffer (50 mM Tris HCl pH 7.4, 4° C. and 150 mM KCl), homogenized for 30 sec using a Brinkmann Polytron PT3000 (setting 6) and centrifuged at 48,000×g for 30 m at 4° C. The centrifugation and homogenization procedure was repeated two more times for a total of 3 times before resuspending the membranes at a final protein concentration of 0.5 mg/mL. Aliquots (30 mL) of the final membrane preparation were then centrifuged at 48,000×g for 30 m, and the resulting pellets were stored at −80° C. until required.
(§3) 35S-TBPS binding assay. Membrane pellets containing either GABAA α1β2γ2 or GABAA α2β3γ2 constructs were thawed on ice, resuspended in 10 mL of 50 mM Tris HCl pH 7.4, 4° C. and 150 mM KCl and centrifuged at 48,000×g, 30 m at 4° C. After discarding the supernatant, the pellet was resuspended in 30 mL incubation buffer (50 mM Tris HCl pH 7.4, 25° C. and 150 mM KCl) at approximately 0.5 mg/mL protein concentration. In ^35S-TBPS competition studies, HEK293 membranes were incubated with ^35S-TBPS (5 nM final) and GABA (1 μM) in the absence or presence of competitor at concentrations ranging from 0.01 nM to 10 μM in 125 μL incubation buffer for 2 hours at room temperature (˜22° C.). Non-specific binding was assayed with picrotoxin (100 μM final concentration). […] Measurement of bound radioactivity was performed using a Packard Microplate 96 well topcount scintillation counter. […]

IC50 [nM] | SMILES
295 | Cc1c2cccc(-c3ccc(Cl)cc3Cl)c2nn1C [A14, 7-(2,4-Dichloro-phenyl)-2,3-dimethyl-2H-indazole; hydrochloride]
1170 | C=Cc1c2cccc(-c3ccc(Cl)cc3Cl)c2nn1C [A17, 7-(2,4-Dichloro-phenyl)-2-methyl-3-vinyl-2H-indazole]
575 | Cn1nc2c(-c3ccc(Cl)cc3Cl)cccc2c1Br [A27, 3-Bromo-7-(2,4-dichloro-phenyl)-2-methyl-2H-indazole]

biological target: T2, GABAA α2β3γ2 (Homo sapiens, UniProt P18507+P28472+P47869); test: 35S-TBPS binding assay (competition), HEK293 membranes with GABAA α2β3γ2 construct; conditions: 35S-TBPS (5 nM) competition, GABA 1 μM, 2 hours at room temperature, read-out: pIC50 α2β3γ2 (converted)
T2 construct: expressed in transfected cells; host or cells: HEK293
Description: as §1, §2, §3

IC50 [nM] | SMILES
30.9 | Cc1c2cccc(-c3ccc(Cl)cc3Cl)c2nn1C [A14, 7-(2,4-Dichloro-phenyl)-2,3-dimethyl-2H-indazole; hydrochloride]
26.3 | C=Cc1c2cccc(-c3ccc(Cl)cc3Cl)c2nn1C [A17, 7-(2,4-Dichloro-phenyl)-2-methyl-3-vinyl-2H-indazole]
13.5 | Cn1nc2c(-c3ccc(Cl)cc3Cl)cccc2c1Br [A27, 3-Bromo-7-(2,4-dichloro-phenyl)-2-methyl-2H-indazole]

test system: not given; test: not given; conditions: not given

melting point | SMILES
133 to 147 °C | Cl.Cn1cc2cccc(-c3ccc(Cl)cc3Cl)c2n1
148 to 150 °C | CC/C=C(\CCC)c1c2cccc(-c3ccc(Cl)cc3Cl)c2nn1C.Cl
190.9 to 195.5 °C | Cl.Cn1cc2ccnc(-c3ccc(Cl)cc3Cl)c2n1
139 to 140 °C | CCCN(CCC)c1c2cccc(-c3ccc(Cl)cc3Cl)c2nn1C.Cl
166 to 167 °C | COc1ccc(-c2cccc3c(N(C)C)n(C)nc23)c(C)c1.Cl
211.1 to 213 °C | CNCc1c2cccc(-c3ccc(Cl)cc3Cl)c2nn1C.Cl
169.9 to 171.9 °C | Cc1cc(C)c(-c2cccc3c(N(C)C)n(C)nc23)c(C)c1.Cl
146.2 to 147.8 °C | CC(=O)N(C)Cc1c2cccc(-c3ccc(Cl)cc3Cl)c2nn1C.Cl
172.5 to 176 °C | Cl.Cn1nc2c(-c3ccc(Cl)cc3Cl)cccc2c1CNN
146.3 to 148.6 °C | COC(=O)NCc1c2cccc(-c3ccc(Cl)cc3Cl)c2nn1C.Cl
184 to 185.5 °C | Cn1nc2c(-c3ccc(Cl)cc3Cl)cccc2c1COC(N)=O
180 to 182 °C | Cc1cc(C)c(-c2cccc3cn(C)nc23)c(C)c1 [A5, 2-Methyl-7-(2,4,6-trimethyl-phenyl)-2H-indazole]
101 to 105 °C | Cc1cc(C#N)ccc1-c1cccc2cn(C)nc12 [A6, 3-Methyl-4-(2-methyl-2H-indazol-7-yl)-benzonitrile]
84.9 to 95.4 °C and 85 to 95 °C | C=Cc1c2cccc(-c3c(C)cc(C)cc3C)c2nn1C [A18, 2-Methyl-7-(2,4,6-trimethyl-phenyl)-3-vinyl-2H-indazole]
129.9 to 130.9 °C | C#Cc1c2cccc(-c3ccc(Cl)cc3Cl)c2nn1C [A20, 7-(2,4-Dichloro-phenyl)-3-ethynyl-2-methyl-2H-indazole]
159.2 to 160.5 °C | CO/N=C\c1c2cccc(-c3ccc(Cl)cc3Cl)c2nn1C [A22, 7-(2,4-Dichloro-phenyl)-2-methyl-2H-indazole-3-carbaldehyde O-methyl-oxime]
137 to 139 °C | Cn1nc2c(-c3ccc(Cl)cc3Cl)cccc2c1Br [A27, 3-Bromo-7-(2,4-dichloro-phenyl)-2-methyl-2H-indazole]

melting point | SMILES
137 to 139 °C | Cn1nc2c(-c3ccc(Cl)cc3Cl)cccc2c1C#N [A29, 7-(2,4-Dichloro-phenyl)-2-methyl-2H-indazole-3-carbonitrile]
154.5 to 156.2 °C | Cn1nc2c(-c3ncc(Cl)cc3Cl)cccc2c1Br [A32, 3-Bromo-7-(3,5-dichloro-pyridin-2-yl)-2-methyl-2H-indazole]
153.9 to 155.3 °C | Cn1cc2cncc(-c3ccc(Cl)cc3Cl)c2n1 [A34, 7-(2,4-Dichloro-phenyl)-2-methyl-2H-pyrazolo[4,3-c]pyridine]
160.5 to 162.8 °C | Cn1cc2nccc(-c3ccc(Cl)cc3Cl)c2n1 [A35, 7-(2,4-Dichloro-phenyl)-2-methyl-2H-pyrazolo[4,3-b]pyridine]
98.8 to 104.5 °C | Cn1nc2c(-c3ccc(Cl)cc3Cl)cccc2c1CNC(=O)N1CCOCC1 [C11, Morpholine-4-carboxylic acid [7-(2,4-dichloro-phenyl)-2-methyl-2H-indazol-3-ylmethyl]-amide]
101.9 to 105.1 °C | CN(C)C(=O)NCc1c2cccc(-c3ccc(Cl)cc3Cl)c2nn1C [C13, 3-[7-(2,4-Dichloro-phenyl)-2-methyl-2H-indazol-3-ylmethyl]-1,1-dimethyl-urea]
123.3 to 126.3 °C | CN(C)C(=O)Nc1c2cccc(-c3ccc(Cl)cc3Cl)c2nn1C [C15, 3-[7-(2,4-Dichloro-phenyl)-2-methyl-2H-indazol-3-yl]-1,1-dimethyl-urea]
170.7 to 173.6 °C | Cn1nc2c(-c3ccc(Cl)cc3Cl)cccc2c1S(N)(=O)=O [D3, 7-(2,4-Dichloro-phenyl)-2-methyl-2H-indazole-3-sulfonic acid amide]
157.8 to 161.7 °C | Cn1nc2c(-c3ccc(Cl)cc3Cl)cccc2c1S(=O)(=O)CCO [D5, 2-[7-(2,4-Dichloro-phenyl)-2-methyl-2H-indazole-3-sulfonyl]-ethanol]
171.3 to 173.2 °C | Cn1nc2c(-c3ccc(Cl)cc3Cl)cccc2c1NS(C)(=O)=O [D15, N-[7-(2,4-Dichloro-phenyl)-2-methyl-2H-indazol-3-yl]-methanesulfonamide]
182.1 to 183.4 °C | Cn1nc2c(-c3ccc(Cl)cc3Cl)cccc2c1S(C)(=O)=O [D-2, 3-Methanesulfonyl-2-methyl-7-(2,4-dichloro-phenyl)-2H-indazole]
246 to 247 °C | Cc1cc(C)c(-c2cccc3c(C(C)O)n(C)nc23)c(C)c1 (stereo not drawn) [E1, 1-[2-Methyl-7-(2,4,6-trimethyl-phenyl)-2H-indazol-3-yl]-ethanol]
119 to 120.9 °C | COCc1c2cccc(-c3ccc(Cl)cc3Cl)c2nn1C [E3, 7-(2,4-Dichloro-phenyl)-3-methoxymethyl-2-methyl-2H-indazole]
197.3 to 201.2 °C | Cn1nc2c(-c3ccc(Cl)cc3Cl)cccc2c1CO [E4]
131.7 to 135.2 °C | CC(=O)OCc1c2cccc(-c3ccc(Cl)cc3Cl)c2nn1C [E5, Acetic acid [7-(2,4-dichloro-phenyl)-2-methyl-2H-indazol-3-yl]-methyl ester]
125.2 to 128 °C | CN(C)C(=O)OCc1c2cccc(-c3ccc(Cl)cc3Cl)c2nn1C [E6, Dimethyl-carbamic acid 7-(2,4-dichloro-phenyl)-2-methyl-2H-indazol-3-ylmethyl ester]

Source: patent US7365211B2, “Heterocyclic GABAA subtype selective receptor modulators” (Roche Palo Alto LLC, priority 2003, dated 2008)
